The values that follow are results of earlier work, collected in patent publication US20120135949A1, “COMBINATION THERAPY FOR TREATING HCV INFECTION” (BOEHRINGER INGELHEIM INTERNATIONAL GMBH, priority 2010, published 2012).

This series relates to HCV. The settings on record: compound (1) monotherapy, 14 days, 1a and 1b patients.

Take `C=C[C@@H]1C[C@]1(NC(=O)[C@@H]1C[C@H](Oc2cc(-c3csc(NC(=O)C(C)C)n3)nc3c(Br)c(OC)ccc23)CN1C(=O)[C@@H](NC(=O)OC1CCCC1)C(C)(C)C)C(=O)O` [Compound (1)]: the “Virologic rebound during the treatment period” value was “vast majority of both 1a and 1b patients demonstrated virologic rebound”.
